Experimental data as given in ChEMBL document CHEMBL1649118, “Tissue accumulation of cephalothin in burns: a comparative study by microdialysis of subcutaneous interstitial fluid cephalothin concentrations in burn patients and healthy volunteers” (Antimicrob Agents Chemother, 2009).
In brackets after ≈: the same amount, converted by molar mass.

Experiments:
[1] = Drug level in subcutaneous interstitial fluid at burnt site of patient at 1 g, iv administered as 5 mins infusion measured after 240 min; format: ADME, organism-based; details: human, read-out: Drug uptake
[2] = Drug level in subcutaneous interstitial fluid at nonburnt site of patient at 1 g, iv administered as 5 mins infusion measured after 240 min; format: ADME, organism-based; details: human, read-out: Drug uptake
[3] = Drug level in subcutaneous interstitial fluid of healthy human at 1 g, iv administered as 5 mins infusion measured after 240 min; format: ADME, organism-based; details: read-out: Drug uptake
Staphylococcus aureus = assay: Antimicrobial activity against Staphylococcus aureus; format: functional
[4] = T>MIC in Staphylococcus aureus infected burn patient at nonburnt tissue site at 1g, iv administered as 5 mins infusion; format: functional
[5] = T>MIC in healthy human at 1g, iv administered as 5 mins infusion; format: functional
[6] = T>MIC in Staphylococcus aureus infected burn patient at burnt tissue site at 1g, iv administered as 5 mins infusion; format: functional
[7] = Time during which concentration exceeded the 5 X MIC for Staphylococcus aureus infected burn patient at nonburnt tissue site at 1g, iv administered as 5 mins infusion; format: functional
[8] = Time during which concentration exceeded the 5 X MIC for Staphylococcus aureus in healthy human at 1g, iv administered as 5 mins infusion; format: functional
[9] = Time during which concentration exceeded the 5 X MIC for Staphylococcus aureus infected burn patient at burnt tissue site at 1g, iv administered as 5 mins infusion; format: functional
Plasma [10] = assay: Fraction unbound in healthy human plasma at 1g, iv administered as 5 mins infusion by microdialysis; format: ADME, organism-based; details: in vivo
Plasma [11] = assay: Fraction unbound in burn patient at 1g, iv administered as 5 mins infusion by microdialysis; format: ADME, organism-based; details: human, in vivo
[12] = Fraction unbound in healthy human interstitial fluid at 1g, iv administered as 5 mins infusion by microdialysis; format: ADME, organism-based; details: in vivo
[13] = Fraction unbound in burn patient interstitial fluid at burn site at 1g, iv administered as 5 mins infusion by microdialysis; format: ADME, organism-based; details: human, in vivo
[14] = Fraction unbound in burn patient interstitial fluid at nonburn site at 1g, iv administered as 5 mins infusion by microdialysis; format: ADME, organism-based; details: human, in vivo
[15] = Plasma protein binding in burn patient at 1g, iv administered as 5 mins infusion; format: ADME, organism-based; details: human, read-out: PPB (converted)
[16] = Plasma protein binding in healthy human at 1g, iv administered as 5 mins infusion; format: ADME, organism-based; details: read-out: PPB (converted)

CC(=O)OCC1=C(C(=O)O)N2C(=O)[C@@H](NC(=O)Cc3cccs3)[C@H]2SC1 [CEPHALOTHIN]
concentration at 4 h [1]: 2840 ng/mL | concentration at 4 h [2]: 3060 ng/mL | concentration at 4 h [3]: 540 ng/mL | MIC (Staphylococcus aureus): 0.2 µg/mL (≈ 0.504 µM) | T>MIC [4]: 336 min | T>MIC [5]: 160 min | T>MIC [6]: 285 min | T [7]: 219 min | T [8]: 96 min | T [9]: 191 min | Cp (Plasma [10]): 17600 ng/mL | Cp (Plasma [11]): 38700 ng/mL | Cp [12]: 8600 ng/mL | Cp [13]: 14500 ng/mL | Cp [14]: 8900 ng/mL | fraction unbound at 5 min [15]: 0.42 | fraction unbound at 5 min [16]: 0.292
